Experimental data reported in US10112907B2, “Substituted indazoles for treating tendon and/or ligament injuries” (NOVARTIS AG, priority 2016, dated 2018).
Where two headings read alike, the source gives them in different places.

Test system: Scleraxis (Scx) gene transcriptional activation in TT-D6 Scx-luciferase (ScxL) cell line
Assay: SCX-LUC in vitro assay (Scx-luciferase reporter)
Assay type: cell-based
Conditions: Mus musculus
[1] = assays described above (Scx-Luc and ex vivo), read-out: EC50 in the assays described above
[2] = 96 h, Table 3, four days, read-out: Scx-Luc (EC50 μM)

Row | EC50 [1] | EC50 [2] | SMILES
1 |  | 0.745 µM | Cc1cc(S(=O)(=O)N[C@@H]2CCC[C@@H](C#N)C2)ccc1-c1ccc2[nH]nc(N)c2c1C [Example 26, 4-(3-amino-4-methyl-1H-indazol-5-yl)-N-((1R,3R)-3-cyanocyclohexyl)-3-methylbenzenesulfonamide]
2 |  | 1.35 µM | Cc1cc(S(=O)(=O)N[C@H]2CC[C@@H](C#N)CC2)ccc1-c1ccc2[nH]nc(N)c2c1C [Example 27, 4-(3-amino-4-methyl-1H-indazol-5-yl)-N-((1s,4s)-4-cyanocyclohexyl)-3-methylbenzenesulfonamide]
3 |  | 0.436 µM | Cc1cc(S(=O)(=O)N2CCC[C@H]2CO)ccc1-c1ccc2[nH]nc(N)c2c1Cl [Example 28, (S)-(1-((4-(3-amino-4-chloro-1H-indazol-5-yl)-3-methylphenyl)sulfonyl)pyrrolidin-2-yl)methanol]
4 |  | 0.277 µM | Cc1cc(S(=O)(=O)N[C@@H]2CCC[C@@H]2O)ccc1-c1ccc2[nH]nc(N)c2c1Cl [Example 29, 4-(3-amino-4-chloro-1H-indazol-5-yl)-N-((1R,2S)-2-hydroxycyclopentyl)-3-methylbenzenesulfonamide]
5 |  | 0.752 µM | Cc1cc(S(=O)(=O)N[C@H]2C[C@@H](O)C2)ccc1-c1ccc2[nH]nc(N)c2c1Cl [Example 30, 4-(3-amino-4-chloro-1H-indazol-5-yl)-N-((1s,3s)-3-hydroxycyclobutyl)-3-methylbenzenesulfonamide]
6 |  | 0.17 µM | Cc1cc(S(=O)(=O)N2CC(F)=C[C@H]2CO)ccc1-c1ccc2[nH]nc(N)c2c1C [Example 33, (S)-(1-((4-(3-amino-4-methyl-1H-indazol-5-yl)-3-methylphenyl)sulfonyl)-4-fluoro-2,5-dihydro-1H-pyrrol-2-yl)methanol]
7 |  | 1.52 µM | Cc1cc(S(=O)(=O)N[C@@H]2CC[C@H](O)C2)ccc1-c1ccc2[nH]nc(N)c2c1C [Example 35, 4-(3-amino-4-methyl-1H-indazol-5-yl)-N-((1R,3S)-3-hydroxycyclopentyl)-3-methylbenzenesulfonamide]
8 |  | 0.806 µM | Cc1cc(S(=O)(=O)N[C@]2(C)C[C@H](O)C2)ccc1-c1ccc2[nH]nc(N)c2c1C [Example 36, 4-(3-amino-4-methyl-1H-indazol-5-yl)-N-((1s,3s)-3-hydroxy-1-methylcyclobutyl)-3-methylbenzenesulfonamide]
9 |  | 2.04 µM | Cc1c(-c2ccc(S(=O)(=O)N3CCC[C@H]3CO)cc2Cl)ccc2[nH]nc(N)c12 [Example 38, (S)-(1-((4-(3-amino-4-methyl-1H-indazol-5-yl)-3-chlorophenyl)sulfonyl)pyrrolidin-2-yl)methanol]

Further lines, the compound ahead of its results:

Row | SMILES | EC50 [1] | EC50 [2]
10 | Cc1cc(S(=O)(=O)NC2CCN(C)CC2)ccc1-c1ccc2[nH]nc(N)c2c1C [4-(3-amino-4-methyl-1H-indazol-5-yl)-3-methyl-N-(1-methylpiperidin-4-yl)benzenesulfonamide] | > 10 µM | 
11 | Cc1cc(S(=O)(=O)N2C[C@H](O)[C@@H](F)C2)ccc1-c1ccc2[nH]nc(N)c2c1C [(3S,4S)-1-((4-(3-amino-4-methyl-1H-indazol-5-yl)-3-methylphenyl)sulfonyl)-4-fluoropyrrolidin-3-ol] | > 10 µM | 
12 | Cc1c(-c2ccc(S(=O)(=O)N3CC(C)(C)C3)cc2Cl)ccc2[nH]nc(N)c12 [Example 1, 5-(2-chloro-4-((3,3-dimethylazetidin-1-yl)sulfonyl)phenyl)-4-methyl-1H-indazol-3-amine] |  | 0.773 µM
13 | Cc1c(-c2ccc(S(=O)(=O)N3CC[C@@H](O)C3)cc2Cl)ccc2[nH]nc(N)c12 [Example 2, (R)-1-((4-(3-amino-4-methyl-1H-indazol-5-yl)-3-chlorophenyl)sulfonyl)pyrrolidin-3-ol] |  | 0.908 µM
14 | Cc1c(-c2ccc(S(=O)(=O)N3CCC(O)C3)cc2F)ccc2[nH]nc(N)c12 (stereo not drawn) [Example 3, 1-((4-(3-amino-4-methyl-1H-indazol-5-yl)-3-fluorophenyl)sulfonyl)pyrrolidin-3-ol] |  | 2.83 µM
15 | Nc1n[nH]c2ccc(-c3ccc(S(=O)(=O)N4CC[C@@H](O)C4)cc3F)c(Cl)c12 [Example 6, (R)-1-((4-(3-amino-4-chloro-1H-indazol-5-yl)-3-fluorophenyl)sulfonyl)pyrrolidin-3-ol] |  | 4.41 µM
16 | Nc1n[nH]c2ccc(-c3ccc(S(=O)(=O)N4CC[C@@H](O)C4)cc3Cl)c(Cl)c12 [Example 8, (R)-1-((4-(3-amino-4-chloro-1H-indazol-5-yl)-3-chlorophenyl)sulfonyl)pyrrolidin-3-ol] |  | 3.6 µM
17 | Cc1cc(S(=O)(=O)N[C@H]2C[C@H](O)C2)ccc1-c1ccc2[nH]nc(N)c2c1C [Example 9, 4-(3-amino-4-methyl-1H-indazol-5-yl)-N-((1r,3r)-3-hydroxycyclobutyl)-3-methylbenzenesulfonamide] |  | 4.96 µM
18 | Cc1cc(S(=O)(=O)N2CC[C@H]2CO)ccc1-c1ccc2[nH]nc(N)c2c1C [Example 10, (S)-(1-((4-(3-amino-4-methyl-1H-indazol-5-yl)-3-methylphenyl)sulfonyl)azetidin-2-yl)methanol] |  | 1.79 µM
19 | Cc1cc(S(=O)(=O)N2CC(O)C2)ccc1-c1ccc2[nH]nc(N)c2c1C [Example 11, 1-((4-(3-amino-4-methyl-1H-indazol-5-yl)-3-methylphenyl)sulfonyl)azetidin-3-ol] |  | 4.13 µM
20 | Cc1cc(S(=O)(=O)N2CC(C)(O)C2)ccc1-c1ccc2[nH]nc(N)c2c1C [Example 13, 1-((4-(3-amino-4-methyl-1H-indazol-5-yl)-3-methylphenyl)sulfonyl)-3-methylazetidin-3-ol] |  | 2.33 µM
21 | Cc1cc(S(=O)(=O)N[C@@H]2CCC[C@H]2O)ccc1-c1ccc2[nH]nc(N)c2c1C [Example 15, 4-(3-amino-4-methyl-1H-indazol-5-yl)-N-((1R,2R)-2-hydroxycyclopentyl)-3-methylbenzenesulfonamide] |  | 3.05 µM
22 | Cc1cc(S(=O)(=O)N[C@@H]2CCCC[C@@H]2O)ccc1-c1ccc2[nH]nc(N)c2c1C [Example 17, 4-(3-amino-4-methyl-1H-indazol-5-yl)-N-((1R,2S)-2-hydroxycyclohexyl)-3-methylbenzenesulfonamide] |  | 4.8 µM
23 | Cc1cc(S(=O)(=O)N2CCC[C@@H]2CO)ccc1-c1ccc2[nH]nc(N)c2c1C [Example 20, (R)-(1-((4-(3-amino-4-methyl-1H-indazol-5-yl)-3-methylphenyl)sulfonyl)pyrrolidin-2-yl)methanol] |  | 0.723 µM
24 | Cc1cc(S(=O)(=O)N2CC(C#N)C2)ccc1-c1ccc2[nH]nc(N)c2c1C [Example 22, 1-((4-(3-amino-4-methyl-1H-indazol-5-yl)-3-methylphenyl)sulfonyl)azetidine-3-carbonitrile] |  | 0.879 µM
25 | Cc1cc(S(=O)(=O)N2CCC(C#N)CC2)ccc1-c1ccc2[nH]nc(N)c2c1C [Example 23, 1-((4-(3-amino-4-methyl-1H-indazol-5-yl)-3-methylphenyl)sulfonyl)piperidine-4-carbonitrile] |  | 1.85 µM
26 | Cc1cc(S(=O)(=O)NC2CC(F)(F)C2)ccc1-c1ccc2[nH]nc(N)c2c1C [Example 24, 4-(3-amino-4-methyl-1H-indazol-5-yl)-N-(3,3-difluorocyclobutyl)-3-methylbenzenesulfonamide] |  | 0.366 µM
27 | Cc1cc(S(=O)(=O)NC2CCCC(O)C2)ccc1-c1ccc2[nH]nc(N)c2c1C (stereo not drawn) [Example 25, 4-(3-amino-4-methyl-1H-indazol-5-yl)-N-(3-hydroxycyclohexyl)-3-methylbenzenesulfonamide] |  | 0.606 µM
